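Where inhibition never reached the appropriate level, the endpoint shown equals the highest concentration tested. Otherwise, values were interpolated linearly from a five-concentration, 48-hour dose response in 96-well plates. TGI: total growth inhibition.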
Tests used:
Experiment in all cases: NCI anticancer screen, dose series, 48 h
[1] = tested on: 786-0 renal
[2] = tested on: HT29 colon
[3] = tested on: KM12 colon
[4] = tested on: OVCAR-8 ovarian
[5] = tested on: SF-295 CNS
[6] = tested on: A549 NSCLC
[7] = tested on: SF-268 CNS
[8] = tested on: HOP-62 NSCLC
[9] = tested on: SK-MEL-5 melanoma
[10] = tested on: NCI-H23 lung
[11] = tested on: HL-60(TB) leukemia
[12] = tested on: PC-3 prostate
[13] = tested on: ACHN renal
[14] = tested on: IGROV1 ovarian
[15] = tested on: T-47D breast
[16] = tested on: OVCAR-5 ovarian
[17] = tested on: SR leukemia
[18] = tested on: HCT-116 colon
[19] = tested on: BT-549 breast

| SMILES | TGI [1] [µM] | TGI [2] [µM] | TGI [3] [µM] | TGI [4] [µM] | TGI [5] [µM] | TGI [6] [µM] | TGI [7] [µM] | TGI [8] [µM] | TGI [9] [µM] | TGI [10] [µM] | TGI [11] [µM] | TGI [12] [µM] | TGI [13] [µM] | TGI [14] [µM] | TGI [15] [µM] | TGI [16] [µM] | TGI [17] [µM] | TGI [18] [µM] | TGI [19] [µM] |
| --- | --- | --- | --- | --- | --- | --- | --- | --- | --- | --- | --- | --- | --- | --- | --- | --- | --- | --- | --- |
| CCN(CCCl)c1cc(CN(C)C)cc(NC(=O)C23CCC(C(=O)Nc4cc(CN(C)C)cc(N(CC)CCCl)c4)(CC2)CC3)c1 | 1 | 1.95 | 3.17 | 3.16 | 11.9 | 5.14 | 16 | 2.76 | 3.33 | 4.71 | > 100 | 1.95 | 9.22 | 3.28 | 19.2 | 10.4 | 24.2 | 5.33 | – |
| CC(C)(C)OC(=O)NCCCC(=O)NC1(c2cc3ccccc3s2)CCCCC1 | 37.4 | 30.6 | 38.9 | 48.3 | 34 | > 100 | 39.7 | 41.5 | 19.9 | 51 | 24.8 | – | 41 | 46.2 | > 100 | – | 27.9 | 30.1 | 32.7 |
| C#Cc1cc(Br)c(OC(=O)C(C)(C)C)c(-c2cc(C#C)cc(Br)c2OC(=O)C(C)(C)C)c1 | > 100 | > 100 | > 100 | > 100 | > 100 | > 100 | > 100 | > 100 | > 100 | > 100 | 30.3 | > 100 | 73.8 | > 100 | > 100 | 66 | – | > 100 | > 100 |
| CN1C(=O)C(O)CC1c1ccccc1C(F)(F)F (stereo not given) | > 100 | > 100 | > 100 | > 100 | > 100 | > 100 | – | > 100 | > 100 | > 100 | > 100 | > 100 | > 100 | > 100 | – | > 100 | – | > 100 | > 100 |
| O=C1/C(=C/c2ccc(Oc3ccccc3)cc2)N=C(c2ccccc2)N1c1ccc(S(=O)(=O)Nc2nccs2)cc1 | > 100 | 72.6 | 53.7 | – | 85.5 | > 100 | > 100 | 79.4 | 49.8 | > 100 | 34.9 | > 100 | > 100 | – | 77.1 | > 100 | 25 | 35.4 | – |
| COC(=O)C1=C(C)NC(C)=C(C(=O)OC)C1c1ccc(N=O)cc1 | 27.7 | 40.8 | 33.4 | 21.7 | > 61.3 | > 60.3 | 43.9 | > 55.3 | 30.9 | 38.9 | > 100 | 29.3 | 26.7 | 30.1 | 44.7 | 32.9 | – | 36.8 | 23 |
| CN(C(=O)C1=CCC2(CC1)OCCO2)c1ccccc1I | > 100 | > 100 | > 100 | > 100 | > 100 | > 100 | – | > 100 | > 100 | > 100 | > 100 | > 100 | > 100 | > 100 | > 100 | > 100 | > 100 | > 100 | – |
| O=c1cc(N=Nc2ccc(Cl)c(Cl)c2)[nH]c(=O)[nH]1 | 2.86 | 3.13 | 6.15 | 4.89 | 32.5 | 42.3 | 7.57 | 19.2 | 10.2 | 10.7 | 0.941 | 13.6 | 2.98 | 4.31 | – | 11.2 | 1.54 | 3.21 | 4.77 |
| CC1=NN(c2nc(N)nc(C/C(N)=N/O)n2)C(C)(C)C1 | > 100 | > 100 | > 100 | > 100 | > 100 | > 100 | > 100 | > 100 | > 100 | > 100 | > 100 | – | > 100 | > 100 | – | > 100 | – | > 100 | > 100 |
| CC(NC(=O)c1ccc(NP(=O)(OCc2ccc([N+](=O)[O-])o2)N(C)CCCCCl)cc1)c1ccc(OCC2CCCCC2)c(C(N)=O)c1 (stereo not given) | 45.9 | 44.4 | 32 | > 100 | 36.4 | 33.2 | 36.1 | 43.4 | 17 | 34.8 | 50 | > 100 | > 100 | 45.9 | 25.5 | 73.7 | 40.7 | 31.6 | – |
| O=S1(=O)OCCOS(=O)(=O)C1Cc1cccc2ccccc12 | 54.8 | 71.4 | – | 34.7 | > 100 | > 100 | 57.8 | 49.1 | 28.2 | 79.5 | 29.9 | > 100 | 99.6 | 28.6 | > 100 | 60.9 | 64.9 | 48.3 | – |
| CCN(CC)c1ccc(/C=C/C(=O)c2cc(C(C)(C)C)c(O)c(C(C)(C)C)c2)cc1 | > 81.2 | 9.52 | > 30.3 | > 100 | 7.98 | > 100 | > 52.9 | > 100 | 70.9 | > 100 | > 39.2 | > 100 | > 100 | > 100 | – | > 44.8 | > 24.5 | > 39.1 | > 100 |
| N=CN=CC(=S)O[C@@H]1C(=O)N2CCC[C@@]23CCCC[C@@H]13 | > 12.5 | > 12.5 | > 12.5 | > 12.5 | > 12.5 | > 12.5 | > 12.5 | > 12.5 | > 12.5 | > 12.5 | > 12.5 | > 12.5 | > 12.5 | > 12.5 | > 12.5 | > 12.5 | > 12.5 | > 12.5 | – |

From PubChem BioAssay (NCI)
